Non-standard residues stand in square brackets, D forms with d. Residues, ends and D or L forms follow the SMILES beside them. ξ: configuration not given here. *: point of attachment. Dansyl = CN(C)c1cccc2c(S(=O)(=O)*)cccc12; ξPip = O=C(O)C1CCCCN1

In this test the target is T1, thrombin (Bos taurus, UniProt P00735).
T1 construct: clotting of bovine fibrinogen
Kind of test: fibrinogen coagulation time (concentration required to prolong the coagulation time by a factor of two). The class given is biochemical. Conditions: bovine fibrinogen, thrombin 5 units/ml, borate saline buffer pH 7.4, 25° C; control 50-55 seconds prolonged to 100-110 seconds. Here is the method:
The measurement of the fibrinogen coagulation time was conducted as follows:
Immediately after mixing, the reaction mixture was transferred from the ice bath to a bath maintained at 25° C. Coagulation times were taken as the period between the time of transference to the 25° C bath and the time of the first appearance of fibrin threads. […] The term "concentration required to prolong the coagulation time by a factor of two" is the concentration of an active ingredient required to prolong the normal coagulation time 50-55 seconds to 100-110 seconds.

`CCCCN(CC(=O)O)C(=O)[C@H](CCCNC(=N)N)NS(=O)(=O)c1cccc2c(N(C)C)cccc12` [compound 153]: the IC (2-fold clotting time) came out at 4 µM.

`CCCCCN(C(=O)[C@H](CCCNC(=N)N)NS(=O)(=O)c1ccc2cc(OC)c(OC)cc2c1)C(C)C(=O)O` (some centres unmarked) [compound 118]: the IC (2-fold clotting time) stood at 2 µM.

With `COCCN(CC(=O)Oc1cccc(C)c1)C(=O)[C@H](CCCNC(=N)N)NS(=O)(=O)c1ccc2cc(OC)c(OC)cc2c1` [compound 202], the IC (2-fold clotting time) was 20 µM.

As for `COc1ccc2ccc(S(=O)(=O)N[C@@H](CCCNC(=N)N)C(=O)N3CCCCCC3C(=O)O)cc2c1` (some centres unmarked) [compound 205], the IC (2-fold clotting time) amounted to 2.5 µM.

In the case of `COc1cc2ccc(S(=O)(=O)N[C@@H](CCCNC(=N)N)C(=O)N(CCc3ccccc3)C(C)C(=O)O)cc2cc1OC` (some centres unmarked) [compound 122], the IC (2-fold clotting time) came out at 1.5 µM.

Turning to `CCCCN(CC(=O)O)C(=O)[C@H](CCCNC(=N)N)NS(=O)(=O)c1cccc2c1CCCC2` [compound 130], the IC (2-fold clotting time) is 20 µM.

With `COc1ccc2ccc(S(=O)(=O)N[C@@H](CCCNC(=N)N)C(=O)N(CC[S+](C)[O-])CC(=O)O)cc2c1` (some centres unmarked) [compound 222], the IC (2-fold clotting time) was 6.5 µM.

In the case of `CCCCCCN(CC(=O)O)C(=O)[C@H](CCCNC(=N)N)NS(=O)(=O)c1ccc2cc(OC)c(OC)cc2c1` [compound 9], the IC (2-fold clotting time) is 1.5 µM.

In the case of `COCCN(CC(=O)O)C(=O)[C@H](CCCNC(=N)N)NS(=O)(=O)c1cccc2cc(C)c(C)cc12` [compound 152], the IC (2-fold clotting time) was 10 µM.

On to `CCCC(C(=O)O)N(CC(=O)O)C(=O)[C@H](CCCNC(=N)N)NS(=O)(=O)c1ccc2cc(OC)c(OC)cc2c1` (some centres unmarked) [compound 207], for which the IC (2-fold clotting time) worked out at 55 µM.

`COCCN(CC(=O)O)C(=O)[C@H](CCCNC(=N)N)NS(=O)(=O)c1ccc2ccc(C)cc2c1` [compound 144]: the IC (2-fold clotting time) stood at 0.2 µM.

As to `CCCN(CC(=O)O)C(=O)[C@H](CCCNC(=N)N)NS(=O)(=O)c1ccc2cc(OC)c(OC)cc2c1` [compound 1], the IC (2-fold clotting time) amounted to 8 µM.

Regarding `COc1ccc2ccc(S(=O)(=O)N[C@@H](CCCNC(=N)N)C(=O)N(C)C(Cc3ccccc3)C(=O)O)cc2c1` (some centres unmarked) [compound 211], the IC (2-fold clotting time) is 2.5 µM.

On to `COc1ccc2ccc(S(=O)(=O)N[C@@H](CCCNC(=N)N)C(=O)N(CC(=O)O)CC3CCCO3)cc2c1` (some centres unmarked) [compound 164], for which the IC (2-fold clotting time) turned out to be 0.15 µM.

For the compound `CCCCN(CC(=O)O)C(=O)[C@H](CCCNC(=N)N)NS(=O)(=O)c1cc(OC)c2cc(OC)ccc2c1` [compound 25], the IC (2-fold clotting time) was found to be 2 µM.

Consider `COc1ccc2cc(S(=O)(=O)N[C@@H](CCCNC(=N)N)C(=O)N(CCC(=O)O)Cc3ccccc3)ccc2c1` [compound 62], for which the IC (2-fold clotting time) is 15 µM.

Take `COCCN(CCCC(=O)O)C(=O)[C@H](CCCNC(=N)N)NS(=O)(=O)c1ccc2cc(OC)c(OC)cc2c1` [compound 17]: the IC (2-fold clotting time) was determined as 2.5 µM.

Take `Cc1ccc2ccc(S(=O)(=O)N[C@@H](CCCNC(=N)N)C(=O)N3CCC(C(C)C)CC3C(=O)O)cc2c1` (some centres unmarked) [compound 175]: the IC (2-fold clotting time) is 0.1 µM.

For `COc1ccc2ccc(S(=O)(=O)N[C@@H](CCCNC(=N)N)C(=O)N(CCSC)CC(=O)O)cc2c1` [compound 67], the IC (2-fold clotting time) was found to be 1 µM.

As to `CC(C)C1CCN(C(=O)[C@H](CCCNC(=N)N)NS(=O)(=O)c2ccc3ccccc3c2)C(C(=O)O)C1` (some centres unmarked) [compound 181], the IC (2-fold clotting time) was determined as 0.5 µM.

As for `COCCN(CC(=O)Oc1ccc2c(c1)CCC2)C(=O)[C@H](CCCNC(=N)N)NS(=O)(=O)c1ccc2cc(OC)c(OC)cc2c1` [compound 203], the IC (2-fold clotting time) turned out to be 30 µM.

Turning to `COCCN(C(=O)[C@H](CCCNC(=N)N)NS(=O)(=O)c1ccc2cc(OC)c(OC)cc2c1)C(C)C(=O)O` (some centres unmarked) [compound 129], the IC (2-fold clotting time) was found to be 5 µM.

Take `COc1cc2ccc(S(=O)(=O)N[C@@H](CCCNC(=N)N)C(=O)N3CCCC[C@@H]3C(=O)O)cc2cc1OC` [compound 220]: the IC (2-fold clotting time) stood at 2 µM.

With `COc1cc2ccc(S(=O)(=O)N[C@@H](CCCNC(=N)N)C(=O)N(CC(=O)O)CC(C)C)cc2cc1OC` [compound 5], the IC (2-fold clotting time) stood at 2 µM.

In the case of `COc1cc2ccc(S(=O)(=O)N[C@@H](CCCNC(=N)N)C(=O)N(CCC(=O)O)Cc3ccccc3)cc2cc1OC` [compound 52], the IC (2-fold clotting time) is 10 µM.

For `COc1ccc2cc(S(=O)(=O)N[C@@H](CCCNC(=N)N)C(=O)N(CC(=O)O)Cc3ccccc3)cc(OC)c2c1` [compound 58], the IC (2-fold clotting time) is 6.5 µM.

As to `CCSCCN(CC(=O)O)C(=O)[C@H](CCCNC(=N)N)NS(=O)(=O)c1ccc2cc(OC)c(OC)cc2c1` [compound 69], the IC (2-fold clotting time) was 5 µM.

Regarding `COc1cc2ccc(S(=O)(=O)N[C@@H](CCCNC(=N)N)C(=O)N3CCCC[C@H]3C(=O)O)cc2cc1OC` [compound 221], the IC (2-fold clotting time) stood at 15 µM.

As to `COCCN(CC(=O)O)C(=O)[C@H](CCCNC(=N)N)NS(=O)(=O)c1cccc2c(OC)cccc12` [compound 43], the IC (2-fold clotting time) was determined as 2.5 µM.

For `CCOC(=O)CN(CCOC)C(=O)[C@H](CCCNC(=N)N)NS(=O)(=O)c1ccc2cc(OC)c(OC)cc2c1` [compound 14], the IC (2-fold clotting time) came out at 1.5 µM.

Consider `CCCCCCCCOC(=O)CN(CCOC)C(=O)[C@H](CCCNC(=N)N)NS(=O)(=O)c1ccc2cc(OC)c(OC)cc2c1` [compound 200], for which the IC (2-fold clotting time) was 2 µM.

As to `COc1cc2ccc(S(=O)(=O)N[C@@H](CCCNC(=N)N)C(=O)N(C)C(Cc3ccccc3)C(=O)O)cc2cc1OC` (some centres unmarked) [compound 209], the IC (2-fold clotting time) stood at 2 µM.

With `COc1cc2ccc(S(=O)(=O)N[C@@H](CCCNC(=N)N)C(=O)N(CCc3ccccc3)CC(=O)O)cc2cc1OC` [compound 54], the IC (2-fold clotting time) came to 3 µM.

Take `COc1ccc2cc(S(=O)(=O)N[C@@H](CCCNC(=N)N)C(=O)N(CCCC(=O)O)Cc3ccccc3)ccc2c1` [compound 60]: the IC (2-fold clotting time) came to 50 µM.

For the compound `CN(C)c1cccc2c(S(=O)(=O)N[C@@H](CCCNC(=N)N)C(=O)N3CCCCC3C(=O)O)cccc12` (some centres unmarked) [compound 183] (Dansyl-Arg-[ξPip]-OH), the IC (2-fold clotting time) amounted to 0.35 µM.

In the case of `Cc1ccc2ccc(S(=O)(=O)N[C@@H](CCCNC(=N)N)C(=O)N(CC(=O)O)CC3CCCO3)cc2c1` (some centres unmarked) [compound 161], the IC (2-fold clotting time) is recorded as 0.2 µM.

Regarding `Cc1ccc2ccc(S(=O)(=O)N[C@@H](CCCNC(=N)N)C(=O)N3CCC(C)CC3C(=O)O)cc2c1` (some centres unmarked) [compound 173], the IC (2-fold clotting time) came out at 0.2 µM.

Regarding `COc1cc2ccc(S(=O)(=O)N[C@@H](CCCNC(=N)N)C(=O)N3Cc4ccccc4C3C(=O)O)cc2cc1OC` (some centres unmarked) [compound 195], the IC (2-fold clotting time) came to 1.5 µM.

For `Cc1ccc2ccc(S(=O)(=O)N[C@@H](CCCNC(=N)N)C(=O)N(CC(=O)O)CC3CCCO3)cc2c1` (some centres unmarked) [compound 160], the IC (2-fold clotting time) was determined as 0.25 µM.

Take `COc1cc2ccc(S(=O)(=O)N[C@@H](CCCNC(=N)N)C(=O)N(CC(=O)O)C3CCCCC3)cc2cc1OC` [compound 111]: the IC (2-fold clotting time) is 5 µM.

For `CCCC(NC(=O)[C@H](CCCNC(=N)N)NS(=O)(=O)c1ccc2cc(OC)c(OC)cc2c1)C(=O)O` (some centres unmarked) [compound 214], the IC (2-fold clotting time) came to 15 µM.

For `N=C(N)NCCC[C@H](NS(=O)(=O)c1ccc2c(c1)CCCC2)C(=O)N(CC(=O)O)Cc1ccccc1` [compound 133], the IC (2-fold clotting time) stood at 30 µM.

Regarding `CCOC(=O)CCN(CC(=O)O)C(=O)[C@H](CCCNC(=N)N)NS(=O)(=O)c1ccc2cc(OC)c(OC)cc2c1` [compound 196], the IC (2-fold clotting time) worked out at 6.5 µM.

With `COc1cc2ccc(S(=O)(=O)N[C@@H](CCCNC(=N)N)C(=O)N3CCCCC3C(=O)O)cc2cc1OC` (some centres unmarked) [compound 71], the IC (2-fold clotting time) is 5 µM.

As for `COc1ccc2ccc(S(=O)(=O)N[C@@H](CCCNC(=N)N)C(=O)N3CC[S+]([O-])CC3C(=O)O)cc2c1` (some centres unmarked) [compound 204], the IC (2-fold clotting time) was 4.5 µM.

For the compound `COc1cc2ccc(S(=O)(=O)N[C@@H](CCCNC(=N)N)C(=O)N(CC(=O)O)CC(C)OC)cc2cc1OC` (some centres unmarked) [compound 212], the IC (2-fold clotting time) amounted to 6.5 µM.

Turning to `CCCCCN(CC(=O)O)C(=O)[C@H](CCCNC(=N)N)NS(=O)(=O)c1ccc2cc(OC)c(OC)cc2c1` [compound 7], the IC (2-fold clotting time) amounted to 5 µM.

Regarding `COc1cc2ccc(S(=O)(=O)N[C@@H](CCCNC(=N)N)C(=O)N3Cc4ccccc4CC3C(=O)O)cc2cc1OC` (some centres unmarked) [compound 194], the IC (2-fold clotting time) was determined as 2 µM.

Take `COc1ccc2ccc(S(=O)(=O)N[C@@H](CCCNC(=N)N)C(=O)N(CCc3ccccc3)CC(=O)O)cc2c1` [compound 64]: the IC (2-fold clotting time) turned out to be 20 µM.

Take `CCOc1cc2ccc(S(=O)(=O)N[C@@H](CCCNC(=N)N)C(=O)N(CCOC)CC(=O)O)cc2cc1OCC` [compound 27]: the IC (2-fold clotting time) was 15 µM.

For the compound `CC1CCN(C(=O)[C@H](CCCNC(=N)N)NS(=O)(=O)c2cccc3ccccc23)C(C(=O)O)C1` (some centres unmarked) [compound 179], the IC (2-fold clotting time) came to 1 µM.

In the case of `COCCN(CC(=O)O)C(=O)[C@H](CCCNC(=N)N)NS(=O)(=O)c1cccc2ccc(C)cc12` [compound 151], the IC (2-fold clotting time) came out at 20 µM.

Take `CCCCN(CC(=O)O)C(=O)[C@H](CCCNC(=N)N)NS(=O)(=O)c1ccc2cc(OC)ccc2c1` [compound 31]: the IC (2-fold clotting time) was found to be 0.5 µM.

On to `CCCCN(CC(=O)O)C(=O)[C@H](CCCNC(=N)N)NS(=O)(=O)c1ccc2ccc(OC)cc2c1` [compound 39], for which the IC (2-fold clotting time) turned out to be 0.5 µM.

Regarding `COCCN(CC(=O)O)C(=O)[C@H](CCCNC(=N)N)NS(=O)(=O)c1ccc2ccc(OC)cc2c1` [compound 35], the IC (2-fold clotting time) turned out to be 0.5 µM.

As to `COc1cc2ccc(S(=O)(=O)N[C@@H](CCCNC(=N)N)C(=O)N3CCOCC3C(=O)O)cc2cc1OC` (some centres unmarked) [compound 191], the IC (2-fold clotting time) amounted to 5 µM.

(Values after US4073913A, “N^2 -arylsulfonyl-L-argininamides and the pharmaceutically acceptable salts thereof” (Mitsubishi Chemical Industries Limited, priority 1974, dated 1978).)
